Assay results from US8747891B2, “Ceramide anionic liposome compositions” (The Penn State Research Foundation, priority 2011, dated 2014).

Columns and labels:
[1] = tested on: primary human AML cells; assay: Clonogeneic growth in semisolid media; assay type: cell-based; conditions: 12-14 days in semi-solid medium; FIG. 3A
Description: For FIG. 3A, primary human AML cells (n=5) were thawed and grown for 12-14 days in semi-solid medium with the indicated concentration of Lip-C6 or Lip-ghost and/or vinblastine.

[2] = tested on: Pane 1 pancreatic cancer cells; assay: MTS cell viability assay; assay type: cell-based; conditions: 24 hrs; 3.2 μM liposomes; 0.01, 0.1 or 1 μM vinblastine; p<0.05 free vs encapsulated vinblastine
Procedure: Pane 1 pancreatic cancer cells were treated with 3.2 μM anionic (A) and neutral ceramide (C6) or non-ceramide nanoliposomes that either contained 0.01, 0.1 or 1 μM vinblastine or PBS. Ghost liposomes contained no ceramide or vinblastine. Unencapsulated (free) vinblastine was also administered at similar concentrations. All treatments were for 24 hrs.
Cell viability was assessed by MTS assay, which measures cellular respiration as a function of reduction of MTS to formazene at 490 nm. […] N=6 individual samples for each condition, replicated in triplicate.
MTS (3-(4,5-dimethylthiazol-2-yl)-5-(3-carboxymethoxyphenyl)-2-(4-sulfophenyl)-2H-tetrazolium), in the presence of phenazine methosulfate (PMS), produces a reduced formazan product, whose purple color can be assessed. In living cells, reduced formazan has an absorbance maximum at 490-500 nm in phosphate-buffered saline. The MTS assay is often described as a ‘one-step’ MTT assay, which offers the convenience of adding the reagent straight to the cell culture without the intermittent steps required in the MTT assay. However this convenience makes the MTS assay susceptible to cololmetric interference as the intermittent steps in the MTT assay remove traces of colored compounds, whilst these remain in the microtiter plate in the one-step MTS assay.

In the case of `CC[C@]1(O)C[C@@H]2CN(CCc3c([nH]c4ccccc34)[C@@](C(=O)OC)(c3cc4c(cc3OC)N(C)[C@H]3[C@@](O)(C(=O)OC)[C@H](OC(C)=O)[C@]5(CC)C=CCN6CC[C@]43[C@@H]65)C2)C1` [vinblastine], the “growth and survival / colony formation” value [1] is reported as “potentiates the inhibitory activity of C6 ceramide nanoliposomes” and the “cell viability (MTS)” value [2] is reported as “Only the high concentration of free vinblastine reduced cell viability”.
